This experiment concerns HIV-I. As to the kind of experiment: p24 antigen capture assay in HIV-I infected H9 lymphocytes (in vivo assay of HIV protease activity, Example 53). The conditions noted are these: H9 lymphocytes infected with HIV-I, three days at 37 C, relative to infected, untreated cultures; read-out: concentration showing 50% inhibition of p24 formation. Type of experiment: cell-based. On the procedure: A p24 capture assay (see Example 50 hereinbelow) provides an "in vivo" method for determining HIV-protease activity. The inhibitor is added to cells infected with HIV, […]. Inhibition of propagation of HIV-protease in cells is measured by the absence or presence of p24, which is generated by HIV protease.
H9 lymphocytes (1x 10^7 cells/ml) were incubated in the presence or absence of HIV-I for 1 hour at 37 C. Cells were washed thoroughly to remove unadsorbed virions and resuspended at 4x10^5 cells/ml in culture medium. Aliquots (one milliliter) were placed in wells of 24 well culture plates containing an equal volume of test compound (diluted in culture medium). After incubation for three days at 37 C, cell density of uninfected cultures was determined to assess toxicity of test compound. A p24 antigen capture assay was used to determine the level of HIV infection in HIV treated cultures. The ability of test compounds to inhibit HIV replication was measured at different concentrations of test compound relative to infected, untreated cultures.

Data on one compound can be found in patent EP0361341A2, “Therapeutics for aids based on inhibitors of HIV protease” (MILES INC., priority 1988, dated 1990).

For the compound `CC[C@H](C)[C@H](NC(=O)[C@@H]1CCCN1CC(Cc1ccccc1)NC(=O)[C@H](CC(N)=O)NC(=O)[C@H](Cc1ccccc1)NC(=O)OC(C)(C)C)C(=O)OCc1ccccc1` (stereo partly drawn) [Example 25, N-[N-[2-[[N2-[N-[(1,1-Dimethylethoxy)carbonyl]-L-phenylalanyl]-L-asparagyl]amino]-3-phenylpropyl]-L-prolyl]-L-isoleucinbenzylester], the IC50 worked out at 200 µM.
